Square brackets hold non-standard residues; d marks the D form. Peptide text beside a SMILES is read from it. NMeF = CN[C@@H](Cc1ccccc1)C(=O)O
Assays:
[1] = test system: male mice of Kunming strain; experiment: Analgesic tolerance test (photothermal tail flick); assay type: in vivo, mouse
Protocol: The mice were injected with the drug in the lateral ventricle of the mice for six consecutive days or in the subcutaneous of the mice for eight consecutive days, and their analgesic tolerance were detected by photothermal tail flick method, and the pharmacological activity of the compounds of the present invention in analgesic tolerance was further explored.
In male mice of Kunming strain, the drug was injected continuously in the lateral ventricle for six days, once a day, and the effect of continuous injection of drugs on the pain sensation was detected by a photothermal tail flick instrument. The ambient temperature is controlled at 22±1° C., and the experimental animals are free to eat and drink. The test drug was injected into the lateral ventricle of the mouse for 6 consecutive days, 4 μl per injection. The basic tail flick incubation period (3-5 seconds) was measured before the first day of drug injection, and those mice that were too sensitive or dull were discarded. The tail flick incubation period of 5, 10, 15, 20, 30 min after administration on the first and sixth days was recorded in the experiment. To prevent scald on the tail of the mouse, the maximum tail flick incubation period was set as 10 seconds,
In addition, we further studied the tolerance of subcutaneous administration of compound 9 and morphine in the photothermal tail flick test. The ambient temperature is controlled at 22±1° C., and the experimental animals are free to eat and drink. First, the basic tail flick incubation period (3-5 seconds) of the mice was measured before administration, and then compound 9 or morphine was administered subcutaneously for eight consecutive days. The tail flick incubation period of 10, 15 and 20 minutes after daily administration were recorded. To prevent scald on the tail of the mouse, the maximum tail flick incubation period was set as 10 seconds.
The experimental data is expressed by MPE (maximum possible effect), MPE (%)=100×[(pain threshold after administration−basal pain threshold)/(10 seconds−basal pain threshold)]. The analgesic tolerance of the drug was compared using the MPE value at the time of maximum analgesic effect of the drug. MPE data was expressed as mean±standard error (Means±S.E.M.). The difference in the analgesic effect of continuous administration in the lateral ventricle of the mice for six days was statistically analyzed by the paired T test, and the difference in the analgesic effect of subcutaneous continuous administration for eight days was analyzed by One-way analysis of variance (one-way ANOVA's Tukey HSD test) for statistics, and ***P<0.001 indicates a significant difference from the analgesic effect of the drug injected on the first day.

[2] = test system: formalin-induced pain mice; experiment: Formalin pain test; assay type: in vivo, mouse
Protocol: The mice were placed in a transparent organic glass box (20×20×30 cm) to accommodate the environment for 10-15 min; a mirror tilted at 30 degrees was placed underneath to facilitate observation of the mouse's foot reaction. After adaptation, the mice were administered in lateral ventricle, intrathecally or intraperitoneally. 5 minutes after administration, 20 μL of a 5% formalin solution was subcutaneously injected into the toes of the right hind paw of the mice, and quickly placed back in the observation box. Timing was started, and the time when the mouse was licking, biting and shaking the injected paw during 0-5 minutes and 15-30 minutes after the injection of the formalin solution were recorded respectively.
The experimental data was expressed by MPE (maximum possible effect), MPE (%)=100×[(licking paw time in saline group−licking paw time in drug group)/licking paw time in saline group]. The relevant MPE data were expressed as mean±standard error Means±S.E.M.), the data for differences between groups treated with different drug concentrations were analyzed by one-way ANOVA (Bonferroni test in one-way ANOVA) for statistics and analysis, ***P<0.001 represents that there was a significant difference between the MPE value of the drug-treated group and that of the saline group.

[3] = test system: blood pressure of Wistar male rats; experiment: Blood pressure in anesthetized rats; assay type: in vivo; conditions: rat, intrathecal; doses 1, 3, 10, 30 nmol
From the text: Wistar male rats weighing 200-250 g. After urethane (1.3 g/kg) anesthesia, the trachea was cut to prevent suffocation. The femoral was isolated and a PE-10 artery cannula was inserted in an insertion depth of approximately 2 cm. The arterial cannula was connected to a pressure transducer PT-100, and the PT-100 was connected to a biofunctional experiment BL-420F system to record mean arterial pressure and pulsatile arterial pressure. An additional PE-10 was inserted from the lumbar vertebra L4-L5 and inserted 3 cm along the subarachnoid space up to the spine T12-L1 for intrathecal administration. After the surgery, the rats were allowed to stabilize for 30 min. Then, intrathecal administration of physiological saline or different doses of the drug, the dose of the drug was from small to large, and each dose interval was more than 40 min. Changes in blood pressure of the rats after administration were recorded.
The experimental results of cardiovascular regulation in rats were expressed as changes in blood pressure, and the relevant data were expressed as mean±standard error (Means±S.E.M.), Differences between groups treated with different drug concentrations were analyzed by one-way ANOVA (Bonferroni test in one-way ANOVA) for data statistics and analysis.

[4] = test system: movement activity of mice; experiment: Movement activity, open field experiment; assay type: in vivo, mouse; conditions: subcutaneous 10 mg/kg
Protocol: The movement activity of the mice was tested by open field experiments. The experimental device is consisted of a 50×50×50 cm topless black plexiglass box and a movement monitoring system. The experiment was carried out in a soundproof environment with an indoor temperature being controlled at 22±1° C. After the experiment was started, the mice were first recorded for free movement within 30 minutes, and then compound 9 or morphine was administered subcutaneously, the movement of the mice was detected for another 150 minutes. Before the experiment for each mouse was started, the whole box was wiped with alcohol as a whole to exclude the residual odor of the previous mouse from affecting the accuracy of the data.
The experimental data were expressed as mean±standard error (Means±S.E.M.), and the data for differences between groups treated with different drugs were analyzed by one-way ANOVA (Bonferroni test in one-way ANOVA) for statistics and analysis, ***P<0.001 represents that there was a significant difference between the movement activity of the drug-treated group and that of the saline group.

[5] = lateral ventricle (i.c.v.), listed as compound 9
[6] = lateral ventricle, from ED50 values

`C[C@@H](NC(=O)[C@@H](N)Cc1ccc(O)cc1)C(=O)NCC(=O)N(C)[C@@H](Cc1ccccc1)C(=O)NCC(=O)N1CCC[C@H]1C(=O)N[C@@H](CCC(N)=O)C(=O)N[C@@H](CCCNC(=N)N)C(=O)N[C@@H](Cc1ccccc1)C(N)=O` [Compound 9, Tyr-D-Ala-Gly-NMe-Phe-Gly-Pro-Gln-Arg-Phe-NH2] (H-Y[dA]G[NMeF]GPQRF-NH2) was tested, and the “analgesic tolerance” value ([1]; eight consecutive days subcutaneous, 10 mg/kg) was “not significantly different from that of the first day”, the “analgesia effect compared with morphine” value ([1]; tail flick, subcutaneous 10 mg/kg) was “equivalent to that of an equal dose of morphine” and the “ED50 value (95% confidence interval) first phase pain” value ([2]; intraperitoneal (i.p.)) was 8.855 (7.573 to 10.35) mg/kg. For the same compound, the “ED50 value (95% confidence interval) second phase pain” value ([2]; intraperitoneal (i.p.)) was 10.92 (9.632 to 12.39) mg/kg, the “ED50 value (95% confidence interval) first phase pain” value ([2]; intrathecal (i.t.)) was 37.69 (35.53 to 39.99) pmol and the “ED50 value (95% confidence interval) second phase pain” value ([2]; intrathecal (i.t.)) was 55.04 (51.26 to 59.10) pmol. For the same compound, the “ED50 value (95% confidence interval) first phase pain” value ([2]; lateral ventricle (i.c.v.)) was 18.8 pmol, the “ED50 value (95% confidence interval) second phase pain” value ([2]; lateral ventricle (i.c.v.)) was 103.4 pmol and the “ED50 value (95% confidence interval) first phase pain” value [2, 5] was 18.80 (15.97 to 22.12) pmol. For the same compound, the “ED50 value (95% confidence interval) second phase pain” value [2, 5] was 103.4 (96.02 to 111.3) pmol, the “analgesic effect relative to BN-9, first phase pain” value [2, 6] was 6.3 times and the “analgesic effect relative to BN-9, second phase pain” value [2, 6] was 11.0 times. The “dose producing a significant blood pressure-lowering effect” value [3] was “more than 1 nmol” and the “total distance of movement” value [4] was 71.39 m.

— US11167006B2 (Shanghai Tianci Life Science Development Co., Ltd., priority 2016, dated 2021)
